Literature values in PMC9232612, “A phase 1b randomised controlled trial of a glucagon-like peptide-1 and glucagon receptor dual agonist IBI362 (LY3305677) in Chinese patients with type 2 diabetes” (Nature Communications, 2022).

Experiments:
[1] = phase 2a, after 49 days of drug exposure; ref Parker VER et al. JCEM 2021;105(3):803-20; cited from earlier work
Method: page 3: doses of IBI362 (4.5 and 6 mg). It would be helpful to provide the time course of the GI adverse events to ascertain whether they occurred during the up-titration phase and whether the symptoms persisted during the 12 weeks. Only one participant in the IBI362 4.5 mg cohort withdrew from the study due to decreased appetite. The cardiovascular safety profile of IBI362 reported in this manuscript raised some safety concerns and will be addressed in greater detail herein. Cardiovascular disorders were reported in 5 participants receiving IBI362 compared with one in each of the placebo and ...

[2] = test system: patients with T2D; conditions: daily-dose, Japanese patients with T2D; cited from earlier work
Description: Several GLP-1 and glucagon dual agonists have shown either glycaemic control or weight loss benefit in various settings. […] SAR425899, a […] GLP-1 and glucagon receptor dual agonist, achieved placebo-adjusted mean HbA1c level reductions up to 0.75% in patients with overweight or obesity and T2D[11].

**Q.** Which “mean change in diastolic BP” value [1] does the source give for Cotadutide here?
**A.** +1.16 mm Hg

**Q.** And the “mean change in systolic BP” value [1]?
**A.** -2.8 mm Hg

**Q.** What about the “mean increase in heart rate” value [1] of the same substance?
**A.** +7.1 BPM

**Q.** And the “reduction in body weight from baseline to day 50 (up to)” value [2]?
**A.** up to 3.3%
